Patent US20060183759A1, “Tissue transglutaminase inhibitors” (priority 2004, published 2006)
Like-named read-outs stand apart in the source and are kept apart here.

Legend:
[1] = molecular target: T1, transglutaminase 2 (TGase 2) (Homo sapiens, UniProt P21980); test: TGase 2 transpeptidase fluorescence assay: incorporation of KXD into N,N-dimethylated-casein (Std and FPC formats); format: biochemical; details: for TGase 2 inhibitory activity, SAR comment in words (relative to parent compound): qualitative comparison
T1 sequence (P21980 1-687): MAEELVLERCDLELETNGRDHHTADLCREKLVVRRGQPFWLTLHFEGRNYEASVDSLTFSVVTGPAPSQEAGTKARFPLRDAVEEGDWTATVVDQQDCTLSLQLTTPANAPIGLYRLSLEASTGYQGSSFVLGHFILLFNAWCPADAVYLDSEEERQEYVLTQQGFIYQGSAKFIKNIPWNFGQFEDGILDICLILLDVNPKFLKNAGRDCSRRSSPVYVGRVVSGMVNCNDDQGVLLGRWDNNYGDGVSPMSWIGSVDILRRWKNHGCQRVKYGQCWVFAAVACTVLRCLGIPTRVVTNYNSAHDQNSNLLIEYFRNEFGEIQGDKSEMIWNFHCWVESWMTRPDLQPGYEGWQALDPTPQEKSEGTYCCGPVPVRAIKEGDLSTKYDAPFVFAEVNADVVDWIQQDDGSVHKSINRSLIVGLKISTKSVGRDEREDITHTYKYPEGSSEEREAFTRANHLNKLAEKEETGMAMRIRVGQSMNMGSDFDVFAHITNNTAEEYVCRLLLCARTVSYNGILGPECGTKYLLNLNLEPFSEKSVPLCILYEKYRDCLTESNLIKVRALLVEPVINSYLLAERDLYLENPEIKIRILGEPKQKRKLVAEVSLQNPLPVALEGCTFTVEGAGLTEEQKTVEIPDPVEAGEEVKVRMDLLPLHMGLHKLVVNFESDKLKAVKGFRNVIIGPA
Method: Transpeptidase activity was monitored as the increase in fluorescence intensity (FI) that accompanies incorporation of the dansylated Lys derivative, α-N-Boc-Lys-CH2-CH2-dansyl (KXD), into the protein substrate, N,N-dimethylated-casein (NMC).
Therefore, a method was used in which full progress curves (FPC) were recorded for the TGase-catalyzed reaction of KXD with NMC in the presence of inhibitor (Table 1-4). Reactions were initiated by enzyme addition to a solution of substrate and inhibitor. […] From such progress curves, IC50 values were calculated using the following equation: IC50=[I]/{(vc/vss)−1}. Progress curves recorded at several inhibitor concentrations were used to determine FPC IC50 values (Table 1-4).

[2] = molecular target: T1, transglutaminase 2 (TGase 2); test: as above; format: biochemical; details: standard format (Std): reactions terminated after 60 min, FI recorded, four-parameter fit
[3] = full progress curves (FPC), IC50=[I]/{(vc/vss)−1}, from steady-state velocity, read-out: IC50 (μM, FPC)
[4] = summary of FPC values, read-out: FPC IC50 values

NNC(=O)CSc1nc2sc3c(c2c(=O)n1-c1cccc(F)c1)CCNC3 [986-47, [3-(3-Fluorophenyl)-4-oxo-3,4,5,6,7,8-hexahydro-9-thia-1,3,7-triazafluoren-2-ylsulfanyl]acetic acid hydrazide]
IC50 [1, 3]: 7.1 µM

O=C(O)CSc1nc2scc(-c3ccc(F)cc3)c2c(=O)n1-c1ccc(F)cc1 [986-54, [3,5-Bis-(4-fluorophenyl)-4-oxo-3,4-dihydrothieno[2,3-d]pyrimidin-2-ylsulfanyl]acetic acid]
IC50 [2]: > 20 µM

NNC(=O)CSc1nc2sc3c(c2c(=O)n1-c1cccc(F)c1)C(Cc1ccccc1)CCC3 (stereo not drawn) [986-45, [5-Benzyl-3-(3-fluorophenyl)-4-oxo-3,4,5,6,7,8-hexahydrobenzo[4,5]thieno[2,3-d]pyrimidin-2-ylsulfanyl]acetic acid hydrazide]
IC50 [2]: 2.3 µM

CC(C)c1sc2nc(SCC(=O)NN)n(-c3cccc(F)c3)c(=O)c2c1-c1ccccc1F [986-41, [3-(3-Fluorophenyl)-5-(2-fluorophenyl)-6-isopropyl-4-oxo-3,4-dihydrothieno[2,3-d]pyrimidin-2-ylsulfanyl]acetic acid hydrazide]
IC50 [1, 3]: 0.9 µM | TGase 2 inhibitory activity, SAR comment in words (relative to parent compound) [1]: detrimental

CCCN1CCc2c(sc3nc(SCC(=O)NN)n(-c4cccc(F)c4)c(=O)c23)C1 [986-49, [3-(3-Fluorophenyl)-4-oxo-7-propyl-3,4,5,6,7,8-hexahydro-9-thia-1,3,7-triazafluoren-2-ylsulfanyl]acetic acid hydrazide]
IC50 [2]: 6 µM

NNC(=O)CSc1nc2scc(-c3ccccc3)c2c(=O)n1Cc1ccccc1 [986-14, (3-Benzyl-4-oxo-5-phenyl-3,4-dihydrothieno[2,3-d]pyrimidin-2-ylsulfanyl)acetic acid hydrazide]
IC50 [2]: 2.3 µM

NNC(=O)CSc1nc2scc(-c3ccccc3)c2c(=O)n1-c1ccc(Cl)cc1 [986-25, [3-(4-Chlorophenyl)-4-oxo-5-phenyl-3,4-dihydrothieno[2,3-d]pyrimidin-2-ylsulfanyl]acetic acid hydrazide]
IC50 [2]: 1.8 µM

CCOC(=O)CSc1nc2scc(-c3ccccc3)c2c(=O)n1-c1ccc(F)cc1 [986-58, [3-(4-Fluorophenyl)-4-oxo-5-phenyl-3,4-dihydrothieno[2,3-d]pyrimidin-2-ylsulfanyl]acetic acid ethyl ester]
IC50 [2]: > 20 µM

CNNC(=O)CSc1nc2scc(-c3ccc(F)cc3)c2c(=O)n1-c1ccc(F)cc1 [986-51, [3,5-Bis-(4-fluorophenyl)-4-oxo-3,4-dihydrothieno[2,3-d]pyrimidin-2-ylsulfanyl]acetic acid N′-methylhydrazide]
IC50 [2]: > 20 µM

COc1ccc(-n2c(SCC(=O)NN)nc3scc(-c4ccccc4)c3c2=O)cc1 [986-15, [3-(4-Methoxyphenyl)-4-oxo-5-phenyl-3,4-dihydrothieno[2,3-d]pyrimidin-2-ylsulfanyl]acetic acid hydrazide]
IC50 [2]: 2.1 µM

NC(=O)CSc1nc2scc(-c3ccccc3F)c2c(=O)n1-c1cccc(F)c1 [986-53, 2-[3-(3-Fluorophenyl)-5-(2-fluorophenyl)-4-oxo-3,4-dihydrothieno[2,3-d]pyrimidin-2-ylsulfanyl]acetamide]
IC50 [2]: > 10 µM

CC(C)c1csc2nc(SCC(=O)NN)n(-c3cccc(F)c3)c(=O)c12 [986-36, [3-(3-Fluorophenyl)-5-isopropyl-4-oxo-3,4-dihydrothieno[2,3-d]pyrimidin-2-ylsulfanyl]acetic acid hydrazide]
IC50 [1, 3]: 0.23 µM | TGase 2 inhibitory activity, SAR comment in words (relative to parent compound) [1]: no loss in activity

NNC(=O)CSc1nc2sc3c(c2c(=O)n1-c1cccc(F)c1)CCCC3 [986-42, [3-(3-Fluorophenyl)-4-oxo-3,4,5,6,7,8-hexahydrobenzo[4,5]thieno[2,3-d]pyrimidin-2-ylsulfanyl]acetic acid hydrazide]
IC50 [1, 3]: 0.45 µM

NNC(=O)CNc1nc2scc(-c3ccccc3)c2c(=O)n1-c1ccccc1 [986-05, (4-Oxo-3,5-diphenyl-3,4-dihydrothieno[2,3-d]pyrimidin-2-ylamino)acetic acid hydrazide]
IC50 [1, 3]: 3.7 µM | TGase 2 inhibitory activity, SAR comment in words (relative to parent compound) [1]: decreased activity

COc1ccc(-c2csc3nc(SCC(=O)NN)n(-c4cccc(F)c4)c(=O)c23)cc1 [986-33, [3-(3-Fluorophenyl)-5-(4-methoxyphenyl)-4-oxo-3,4-dihydrothieno[2,3-d]pyrimidin-2-ylsulfanyl]acetic acid hydrazide]
IC50 [1, 3]: 0.28 µM

NNC(=O)CSc1nc2ccc(-c3ccccc3)cc2c(=O)n1-c1cccc(F)c1 [986-04, [3-(3-Fluorophenyl)-4-oxo-6-phenyl-3,4-dihydroquinazolin-2-ylsulfanyl]acetic acid hydrazide]
IC50 [1, 3]: 1.5 µM | TGase 2 inhibitory activity, SAR comment in words (relative to parent compound) [1]: Activity was partly restored

CN1CCc2c(sc3nc(SCC(=O)NN)n(-c4cccc(F)c4)c(=O)c23)C1 [986-48, [3-(3-Fluorophenyl)-7-methyl-4-oxo-3,4,5,6,7,8-hexahydro-9-thia-1,3,7-triazafluoren-2-ylsulfanyl]acetic acid hydrazide]
IC50 [1, 3]: 0.53 µM

NNC(=O)CSc1nc2scc(-c3ccccc3F)c2c(=O)n1-c1cccc(F)c1 [986-37, [3-(3-Fluorophenyl)-5-(2-fluorophenyl)-4-oxo-3,4-dihydrothieno[2,3-d]pyrimidin-2-ylsulfanyl]acetic acid hydrazide]
IC50 [1, 3]: 0.14 µM | IC50 [1, 4]: < 0.16 µM

NNC(=O)CSc1nc2scc(-c3cccc(F)c3)c2c(=O)n1-c1cccc(F)c1 [986-38, [3,5-Bis-(3-fluorophenyl)-4-oxo-3,4-dihydrothieno[2,3-d]pyrimidin-2-ylsulfanyl]acetic acid hydrazide]
IC50 [1, 3]: 0.29 µM

Cc1sc2nc(SCC(=O)NN)n(-c3cccc(F)c3)c(=O)c2c1-c1ccccc1F [986-40, [3-(3-Fluorophenyl)-5-(2-fluorophenyl)-6-methyl-4-oxo-3,4-dihydrothieno[2,3-d]pyrimidin-2-ylsulfanyl]acetic acid hydrazide]
IC50 [1, 3]: 0.15 µM | IC50 [1, 4]: < 0.16 µM

CC1CCCc2sc3nc(SCC(=O)NN)n(-c4cccc(F)c4)c(=O)c3c21 (stereo not drawn) [986-43, [3-(3-Fluorophenyl)-5-methyl-4-oxo-3,4,5,6,7,8-hexahydrobenzo[4,5]thieno[2,3-d]pyrimidin-2-ylsulfanyl]acetic acid hydrazide]
IC50 [1, 3]: 0.2 µM

CC(C)(C)OC(=O)N1CCc2c(sc3nc(SCC(=O)NN)n(-c4cccc(F)c4)c(=O)c23)C1 [986-46, 3-(3-Fluorophenyl)-2-hydrazinocarbonylmethylsulfanyl-4-oxo-3,5,6,8-tetrahydro-4H-9-thia-1,3,7-triazafluorene-7-carboxylic acid tert-butyl ester]
IC50 [1, 3]: 1.1 µM

COc1ccccc1-c1csc2nc(SCC(=O)NN)n(-c3cccc(F)c3)c(=O)c12 [986-31, [3-(3-Fluorophenyl)-5-(2-methoxyphenyl)-4-oxo-3,4-dihydrothieno[2,3-d]pyrimidin-2-ylsulfanyl]acetic acid hydrazide]
IC50 [1, 3]: 0.14 µM | IC50 [1, 4]: < 0.16 µM

NNC(=O)CSc1nc2sc(Cl)c(-c3ccccc3F)c2c(=O)n1-c1cccc(F)c1 [986-39, [6-Chloro-3-(3-fluorophenyl)-5-(2-fluorophenyl)-4-oxo-3,4-dihydrothieno[2,3-d]pyrimidin-2-ylsulfanyl]acetic acid hydrazide]
IC50 [1, 3]: 0.13 µM | TGase 2 inhibitory activity, SAR comment in words (relative to parent compound) [1]: increased activity | IC50 [1, 4]: < 0.16 µM
